Laboratory results reported in patent US10315992B2, “Tetracyline compounds” (Tetraphase Pharmaceuticals, Inc., priority 2012, dated 2019).
≈ marks a conversion by molar mass, not a printed value. Like-named read-outs stand apart in the source and are kept apart here.

Assays:
EC 882 imp = assay: MIC assay, EC882; type: cell-based
Text: (§1) Minimum Inhibitory Concentration (MIC) Assay
(§2) The assays were run as follows.

[1] = system: Enterobacter cloacae EC108 (ATCC 13047); assay: MIC assay, EC108; type: cell-based; conditions: ATCC13047, E. cloacae ATCC 13047, Table 4, read-out: MIC ECI 108 13047
[2] = system: Staphylococcus aureus SA158 (tetracycline-resistant tet(K)); assay: MIC assay, SA158; type: cell-based
[3] = system: Staphylococcus aureus SA100 (ATCC 13709, MSSA, Smith strain); assay: MIC assay, SA100; type: cell-based; conditions: S. aureus ATCC 13709, MSSA, Table 4, read-out: MIC SA 100 13709
EC 880 ipxC = assay: MIC assay, EC880; type: cell-based
Text: as §1, §2

[4] = system: Pseudomonas aeruginosa PA555 (ATCC BAA-47, PAO1); assay: MIC assay, PA555; type: cell-based
[5] = system: Klebsiella pneumoniae KP153 (tet(A), MDR, ESBL+)
[6] = system: Pseudomonas aeruginosa PA111 (ATCC 27853); assay: MIC assay, PA111; type: cell-based; conditions: ATCC27853, P. aeruginosa ATCC 27853, Table 4, read-out: MIC PA 111 27853
[7] = system: Enterococcus faecalis EF159 (tet(M)); assay: MIC assay, EF159; type: cell-based; conditions: E. faecalis tet(M), Table 4, read-out: MIC EF 159 tetM
[8] = system: Enterococcus faecalis EF327 (wound isolate, tet(M)); assay: MIC assay, EF327; type: cell-based
[9] = system: Enterococcus faecalis EF103 (ATCC 29212); assay: MIC assay, EF103; type: cell-based; conditions: ATCC29212, E. faecalis ATCC 29212, Table 4, read-out: MIC EF 103 29212
[10] = system: Staphylococcus aureus SA191 (HA-MRSA, tetracycline-resistant); assay: MIC assay, SA191; type: cell-based; conditions: S. aureus HA-MRSA, tetracycline-resistant, Table 5, read-out: MIC SA 191
[11] = system: Escherichia coli EC155 (tet(A)); assay: MIC assay, EC155; type: cell-based
[12] = system: Escherichia coli EC878 (MG1655 tolC::kan); assay: microbe, parasite or virus in culture; type: cell-based
[13] = system: Enterobacter cloacae EC603 (urine isolate); assay: MIC assay, EC603; type: cell-based; conditions: control compounds
[14] = system: Moraxella catarrhalis MC205 (ATCC 8176); assay: MIC assay, MC205; type: cell-based; conditions: ATCC8176, M. catarrhalis ATCC 8176, Table 5, read-out: MIC MC 205 8176
[15] = system: Staphylococcus aureus SA161 (HA-MRSA, tet(M)); assay: MIC assay, SA161; type: cell-based; conditions: S. aureus HA-MRSA, tet(M); Table 5
KP 194 7E+05 = assay: MIC assay, KP194; conditions: Table 5
Method: (§3) MICs were determined according to the Clinical and Laboratory Standards Institute (CLSI) guidances (e.g., CLSI. Performance standards for antimicrobial susceptibility testing; nineteenth information supplement. CLSI document M100-S19, CLSI, 940 West Valley Road, Suite 1400, Wayne, Pa. 19087-1898, USA, 2009). Briefly, frozen bacterial strains were thawed and subcultured onto Mueller Hinton Broth (MHB) or other appropriate media (Streptococcus requires blood and Haemophilus requires hemin and NAD). Following incubation overnight, the strains were subcultured onto Mueller Hinton Agar and again incubated overnight. […] Isolated colonies were selected to prepare a starting inoculum equivalent to a 0.5 McFarland standard. […] Test compounds were prepared by dilution in sterile water to a final concentration of 5.128 mg/mL. Antibiotics (stored frozen, thawed and used within 3 hours of thawing) and compounds were further diluted to the desired working concentrations.
(§4) The assays were run as follows. Fifty μL of MHB was added to wells 2-12 of a 96-well plate. One hundred μL of appropriately diluted antibiotics was added to well 1. Fifty μL of antibiotics was removed from well 1 and added to well 2 and the contents of well 2 mixed by pipetting up and down five times. Fifty μL of the mixture in well 2 was removed and added to well 3 and mixed as above. Serial dilutions were continued in the same manner through well 12. Fifty μL was removed from well 12 so that all contained 50 μL. Fifty μL of the working inoculum was then added to all test wells. A growth control well was prepared by adding 50 μL of working inoculum and 50 μL of MHB to an empty well. The plates were then incubated at 37° C. overnight, removed from the incubator and each well was read on a plate reading mirror. The lowest concentration (MIC) of test compound that inhibited the growth of the bacteria was recorded.

[16] = system: Stenotrophomonas maltophilia SM256 (cystic fibrosis isolate, MDR); assay: MIC assay, SM256; type: cell-based; conditions: control compounds
[17] = system: Escherichia coli EC107 (ATCC 25922); assay: MIC assay, EC107; type: cell-based
[18] = system: Acinetobacter baumannii AB250 (cystic fibrosis isolate, MDR); assay: MIC assay, AB250; type: cell-based; conditions: control compounds
PA 884 35151 = assay: MIC assay, PA884; conditions: Pseudomonas aeruginosa, read-out: MIC PA 884 351 51
Method: as §3, §4

[19] = system: Haemophilus influenzae HI262 (tetracycline-resistant, ampicillin-resistant); assay: MIC assay, HI262; type: cell-based; conditions: H. influenzae tetracycline-resistant, Table 5, read-out: MIC HI 262 33929
[20] = system: Klebsiella pneumoniae KP457 (2009 ESBL+, CTX-M, OXA)
[21] = system: Acinetobacter baumannii AB110 (ATCC 19606); assay: MIC assay, AB110; type: cell-based; conditions: ATCC19606, A. baumannii ATCC 19606, Table 4, read-out: MIC AB 110 19606

SMILES: CN(C)c1ccc(O)c2c1C[C@H]1C[C@H]3[C@H](N(C)C)C(O)=C(C(N)=O)C(=O)[C@@]3(O)C(O)=C1C2=O [Minocycline, minocycline]
- MIC (EC 882 imp; Table 6, read-out: MIC EC 882 imp): 0.015 µg/mL (≈ 0.0328 µM)
- MIC (EC 882 imp; read-out: MIC EC 882 imp, Table 7): 0.02 µg/mL (≈ 0.0437 µM)
- MIC [1]: 2 µg/mL (≈ 4.37 µM)
- MIC ([2]; S. aureus tet(K), Table 4, read-out: MIC SA 158 tetK): 0.031 µg/mL (≈ 0.0678 µM)
- MIC ([2]; S. aureus tet(K), Table 5, read-out: MIC SA 158 tetK): 0.03 µg/mL (≈ 0.0656 µM)
- MIC ([2]; S. aureus tet(K), Table 6, read-out: MIC SA 158 tetK): 0.03 µg/mL (≈ 0.0656 µM)
- MIC ([2]; S. aureus tet(K), Table 7, read-out: MIC SA 158 tetK): 0.03 µg/mL (≈ 0.0656 µM)
- MIC ([2]; control compounds, numeric, read-out: MIC SA 158 tetK): 0.03 µg/mL (≈ 0.0656 µM)
- MIC ([2]; control compounds, read-out: MIC SA 158 tetK): 0.03 µg/mL (≈ 0.0656 µM)
- MIC [3]: 0.063 µg/mL (≈ 0.138 µM)
- MIC (EC 880 ipxC; Table 6, read-out: MIC EC 880 ipx C): 0.015 µg/mL (≈ 0.0328 µM)
- MIC (EC 880 ipxC; Table 7, read-out: MIC EC 880 ipxC): 0.02 µg/mL (≈ 0.0437 µM)
- MIC ([4]; P. aeruginosa ATCC BAA-47 PAO1, Table 5, read-out: MIC PA 555): 16 µg/mL (≈ 35 µM)
- MIC ([4]; P. aeruginosa ATCC BAA-47 PAO1, Table 6, read-out: MIC PA5 55 BAA- 47): 16 µg/mL (≈ 35 µM)
- MIC ([4]; P. aeruginosa ATCC BAA-47 PAO1, Table 7, read-out: MIC PA 555 BAA- 47): 16 µg/mL (≈ 35 µM)
- MIC ([4]; control compounds, c1, strain PA555 inferred, read-out: MIC): 16 µg/mL (≈ 35 µM)
- MIC ([4]; control compounds, numeric, read-out: MIC PA 555 BAA-47): 16 µg/mL (≈ 35 µM)
- MIC KP 153 tetA [5]: 8 µg/mL (≈ 17.5 µM)
- MIC [6]: 16 µg/mL (≈ 35 µM)
- MIC [7]: 16 µg/mL (≈ 35 µM)
- MIC ([8]; E. faecalis tet(M), Table 6, read-out: MIC EF 327 tet M): 32 µg/mL (≈ 69.9 µM)
- MIC ([8]; control compounds, numeric, read-out: MIC EF 327 tetM): 32 µg/mL (≈ 69.9 µM)
- MIC [9]: 1 µg/mL (≈ 2.19 µM)
- MIC [10]: 8 µg/mL (≈ 17.5 µM)
- MIC ([11]; Escherichia coli, E. coli tet(A), Table 7, read-out: MIC EC 155 tetA): 8 µg/mL (≈ 17.5 µM)
- MIC EC 155 tetA ([11]; control compounds): 8 µg/mL (≈ 17.5 µM)
- MIC ([12]; MG1655, read-out: MIC EC 878 toIC, E. coli MG1655 tolC::kan, Table 6): 0.25 µg/mL (≈ 0.546 µM)
- MIC ([12]; MG1655, read-out: MIC EC 878 toIC, E. coli MG1655 tolC::kan, Table 7): 0.25 µg/mL (≈ 0.546 µM)
- MIC ([12]; MG1655, read-out: MIC EC 878 toIC, control compounds): 0.25 µg/mL (≈ 0.546 µM)
- MIC ([12]; MG1655, read-out: MIC EC 878 tolC, control compounds, numeric): 0.25 µg/mL (≈ 0.546 µM)
- MIC ([13]; c7, strain EC603 inferred, read-out: MIC): 33 µg/mL (≈ 72.1 µM)
- MIC ([13]; numeric, read-out: MIC EC 603 tetA): 33 µg/mL (≈ 72.1 µM)
- MIC [14]: 0.02 µg/mL (≈ 0.0437 µM)
- MIC SA 161 tetM [15]: 8 µg/mL (≈ 17.5 µM)
- MIC KP 194 7E+05 (KP 194 7E+05): 32 μg/mL
- MIC ([16]; c9, strain SM256 inferred, read-out: MIC): 0.5 µg/mL (≈ 1.09 µM)
- MIC ([16]; numeric, read-out: MIC SM 256): 0.5 µg/mL (≈ 1.09 µM)
- MIC ([17]; ATCC25922, E. coli ATCC 25922, Table 6, read-out: MIC EC 107 259 22): 0.5 µg/mL (≈ 1.09 µM)
- MIC ([17]; ATCC25922, E. coli ATCC 25922, Table 7, read-out: MIC EC 07 25922): 0.5 µg/mL (≈ 1.09 µM)
- MIC ([17]; ATCC25922, control compounds, numeric, read-out: MIC EC 107 25922): 0.5 µg/mL (≈ 1.09 µM)
- MIC ([18]; c8, strain AB250 inferred, read-out: MIC): 8 µg/mL (≈ 17.5 µM)
- MIC ([18]; numeric, read-out: MIC AB 250): 8 µg/mL (≈ 17.5 µM)
- MIC (PA 884 35151): 1 µg/mL (≈ 2.19 µM)
- MIC [19]: 1 µg/mL (≈ 2.19 µM)
- MIC KP 457 [20]: 8 µg/mL (≈ 17.5 µM)
- MIC KP 457 CTX- M-15 [20]: 8 µg/mL (≈ 17.5 µM)
- MIC KP 457 CTX-M-15 [20]: 8 µg/mL (≈ 17.5 µM)
- MIC [21]: 0.063 µg/mL (≈ 0.138 µM)
